Test results taken from patent publication US6544986B2, “Pyridones and their use as modulators of serine hydrolase enzymes” (Dalhousie University, priority 2000, dated 2003).
pKi: −log10 of the molar value. “Also recorded” adds a separate entry of the source.

Experiments:
human BuChE = human BuChE (Homo sapiens, UniProt P06276); assay: Esterase activity assay (modified Ellman), BuChE with butyrylthiocholine; assay type: biochemical; details: for pKi: substrate butyrylthiocholine, pH 8.0, room temperature, from slopes of Lineweaver-Burk plots vs log concentration, read-out: Esterase Ki BuChE(h)
Sequence of human BuChE (P06276 29-602): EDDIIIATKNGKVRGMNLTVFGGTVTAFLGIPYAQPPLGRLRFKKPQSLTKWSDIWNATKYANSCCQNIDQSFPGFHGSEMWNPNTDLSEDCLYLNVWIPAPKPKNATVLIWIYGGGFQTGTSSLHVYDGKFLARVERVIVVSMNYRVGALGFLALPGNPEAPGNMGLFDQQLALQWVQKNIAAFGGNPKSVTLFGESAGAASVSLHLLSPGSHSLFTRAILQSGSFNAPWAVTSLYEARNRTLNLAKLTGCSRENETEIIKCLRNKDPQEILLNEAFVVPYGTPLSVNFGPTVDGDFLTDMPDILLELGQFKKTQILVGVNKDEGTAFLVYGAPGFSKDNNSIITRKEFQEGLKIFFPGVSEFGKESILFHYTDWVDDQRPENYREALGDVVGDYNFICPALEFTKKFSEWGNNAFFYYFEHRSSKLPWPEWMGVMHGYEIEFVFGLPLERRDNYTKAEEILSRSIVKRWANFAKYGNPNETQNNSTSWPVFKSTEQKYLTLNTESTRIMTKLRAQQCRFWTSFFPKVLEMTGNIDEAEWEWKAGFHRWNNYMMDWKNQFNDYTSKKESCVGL
Experimental: (§1) The esterase activity of BuChE or AChE was determined by a modification of the method described by Ellman et al. (32), using a buffered 5,5′-dithiobis (2-nitrobenzoic acid) (DTNB) solution. Stock DTNB solution consisted of 10 mM DTNB with 18 mM sodium bicarbonate in 0.1 M phosphate buffer, pH 7.0. Working DTNB solution was prepared by mixing 3.6 mL of 10 mM stock DTNB solution with 96.4 mL of 0.1 M phosphate buffer at pH 8.0. The assay was carried out by mixing 2.7.mL of buffered DTNB working solution (pH 8.0), 0.1 mL of BuChE or AChE in 0.005% aqueous gelatin (1 U/mL), and 0.1 mL of 50% aqueous acetonitrile, or a solution of a 2-pyridone compound of the invention in the same solvent, in a quartz cuvette of 1 cm path-length. Absorbance of this solution was calibrated to zero and the reaction was commenced by adding 0.1 mL of aqueous acetylthiocholine (AcSCh) or butyrylthiocholine (BuSCh) solutions of varying concentration (between 1.9 mM and 15 mM). The final volume was always 3.0 mL. The reactions were carried out at room temperature. The rate of change of absorbance (ΔA/min), reflecting the rate of hydrolysis of BuSCh or AcSCh, was recorded every 5 seconds for a total of 1 minute using a Milton-Roy uv-visible spectrophotometer set at λ=412 nm.
(§2) The slopes of Lineweaver-Burk plots versus Log of inhibitor concentration were used to determine the inhibitor constant Ki.
(§3) The effect of increasing amount of exemplified 2-pyridone compounds (Examples 1 to 10) on the activity of human BuChE and AChE is shown in FIGS. 1 to 10.
(§4) The compounds of Examples 1 to 9 inhibited BuChE and AChE to varying degrees. Graphs of the slopes obtained from Lineweaver-Burk double reciprocal graphs versus log of the concentration of each compound gave the inhibition constant Ki for each compound.

human AChE = human AChE (Homo sapiens, UniProt P22303); assay: Esterase activity assay (modified Ellman), AChE with acetylthiocholine; assay type: biochemical; details: substrate acetylthiocholine; for pKi: read-out: Esterase Ki AChE(h)
Sequence of human AChE (P22303 32-614): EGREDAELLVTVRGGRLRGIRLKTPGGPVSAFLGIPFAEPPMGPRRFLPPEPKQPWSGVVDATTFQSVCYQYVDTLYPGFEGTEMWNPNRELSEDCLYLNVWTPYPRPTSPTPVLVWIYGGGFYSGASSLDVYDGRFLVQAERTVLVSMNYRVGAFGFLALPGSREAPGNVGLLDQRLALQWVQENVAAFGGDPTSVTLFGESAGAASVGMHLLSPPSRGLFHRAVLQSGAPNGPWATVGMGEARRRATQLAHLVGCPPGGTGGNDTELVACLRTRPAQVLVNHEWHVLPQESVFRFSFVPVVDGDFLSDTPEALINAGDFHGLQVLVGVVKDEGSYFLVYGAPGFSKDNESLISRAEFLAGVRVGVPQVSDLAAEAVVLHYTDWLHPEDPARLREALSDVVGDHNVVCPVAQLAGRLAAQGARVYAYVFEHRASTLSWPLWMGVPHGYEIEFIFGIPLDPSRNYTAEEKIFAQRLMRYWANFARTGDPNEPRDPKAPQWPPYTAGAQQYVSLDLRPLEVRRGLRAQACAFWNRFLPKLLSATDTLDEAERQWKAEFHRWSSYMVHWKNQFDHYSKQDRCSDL
Experimental: as §1, §2, §3, §4

[1] = test system: trypsin-like enzymatic activity associated with BuChE; assay: Trypsin activity assay (BAPNA hydrolysis, HPLC of PNA), trypsin-like activity associated with BuChE; assay type: biochemical, human; details: substrate BAPNA, Tris buffer pH 8.0, 40° C.; FIG. 11
Experimental: (§5) The effect of 2-pyridone compounds on trypsin-like enzymatic activity associated with BuChE and that of human trypsin was determined using Nα-benzoyl-DL-arginine-p-nitroanilide (BAPNA) as the substrate. The same procedure was used to study the effect of the compounds on BuChE-trypsin mixture. Reactions were performed in 0.06 M Tris buffer at pH 8.0. […] The incubations were carried out in 1.5 mL Eppendorf tubes by mixing 0.85 mL of 0.06 M Tris buffer (pH 8.0), 0.07 mL of up to 10 mM BAPNA, 0.03 mL of 50% aqueous acetonitrile, or a solution of 2-pyridone compound (typically, a 5 mM working solution) in the same solvent, and 0.05 mL of the enzyme solution (0.5-1.5 U of trypsin in 1 mM hydrochloric acid, or up to 5.0 U of BuChE in 0.005% aqueous gelatin). The final volume of the assay mixture was always 1.0 mL. The enzyme reaction mixture was incubated at 40° C. for 15-45 hours. The use of 1.5 U of trypsin gave an amount of p-nitroaniline (PNA) produced upon cleavage of BAPNA by trypsin after 22 hours of incubation that was similar to the amount of product formed by trypsin-like activity associated with 5 U of BuChE under the same conditions.
(§6) The concentration of the PNA was determined by means of high performance liquid chromatography (HPLC). […] The rate of formation of PNA was calculated by using the following formula: […]

human trypsin = assay: Trypsin activity assay (BAPNA hydrolysis, HPLC of PNA), trypsin; assay type: biochemical; details: substrate BAPNA, Tris buffer pH 8.0, 40° C.; FIG. 12
Experimental: as §5, §6

[2] = pH 8.0, room temperature, from slopes of Lineweaver-Burk plots vs log concentration

SMILES	pKi (human BuChE)	pKi (human AChE; [2])	effect on trypsin-like activity associated with BuChE (rate of hydrolysis of BAPNA) [1]	effect on enzymatic activity of trypsin itself (human trypsin)	inhibitory activity towards each cholinesterase studied (comparison) (human BuChE; BuChE versus AChE)	inhibition of the activity of AChE on acetylthiocholine (in words) (human AChE)	Esterase Ki AChE(h) (human AChE; [2])
O=C(c1ccc(=O)[nH]c1)N(Cc1ccccc1)Cc1ccccc1 [Example 1, 5-(N,N-Dibenzyl)aminocarbonyl-2-pyridone]	4.43	3.59	increased the rate of hydrolysis; also recorded: considerably enhanced	do not have direct effect on trypsin alone			
CC(C)N(C(=O)c1ccc(=O)[nH]c1)C(C)C [Example 2, 5-(N,N-Diisopropyl)aminocarbonyl-2-pyridone]	2.84	3.88					
CCN(CC)C(=O)c1ccc(=O)[nH]c1 [Example 3, 5-(N,N-Diethyl)aminocarbonyl-2-pyridone]	2.89	2.12					
CCN(CC)Cc1ccc(=O)[nH]c1 [Example 4, 5-(N,N-Diethyl)aminomethyl-2-pyridone]	2.41	2.32			equal inhibitory activity		
O=C(NC1CCCCC1)c1ccc(=O)[nH]c1 [Example 7, 5-(N-Cyclohexyl)aminocarbonyl-2-pyridone]	3.86					no inhibition	Insignificant inhibition
